According to patent US20040023802A1, “Increasing plant yield and/or vigor by seed treatment with a neonicotinoid compound” (Monsanto Technology, L.L.C., priority 2002, published 2004):

Experiments:
Type in all cases: in vivo
commercial corn hybrids = test: Hybrid seed production (breeding station) field trial: final stand count and plot yield of corn from imidacloprid-treated seed; conditions: for Stand count, Imidacloprid treated / Corn yield, Imidacloprid treated: 0.165 mg/kernel + fungicide; for Stand count, Imidacloprid treated: V5 stage; for Corn yield, Imidacloprid treated: at maturity, 15% moisture; for Corn yield, Difference / Stand count, Difference: imidacloprid treated vs fungicide-only control; for Actual Yield Over Expected: yield increase vs that expected from stand improvement (about 1% per 1,000 plants/ac); for Actual Yield Over 2× of Expected: yield increase vs two-times that predicted from stand improvement
corn hybrids = test: Field strip trials of corn yield under different tillage regimes: soil insecticide alone or plus Gaucho seed treatment
Procedure: Seed of three corn hybrids were treated with imidacloprid in the manner described in Example 3. Seed were planted using standard planting equipment in field experiments across the U.S. corn belt. All experiments were conducted as strip trials, under a variety of tillage regimes, and all trials received standard weed control and cultural practices common to commercial corn production. Plot yield was collected using standard mechanical harvesting equipment.
Soil insecticides were applied in the manner described in Example 2. Considerable increase in corn yield was also observed when corn seed treated with imidacloprid were planted in soils treated with soil-applied insecticide. The increase in yield was observed under all tillage conditions and for all the hybrids tested. Table 7 compares the yield from untreated corn seeds and corn seeds treated with imidacloprid when planted on soil treated with soil-applied insecticide. […] Soil-applied insecticides are known to be an effective method for controlling secondary insects, so the increase in corn yield was surprising.
No-Till-Tillage system refers to situations where no tillage methods are applied to the soil prior to or at planting.
Conservation/Minimum tillage refers to reduced tillage practices allowing at least 30% of soil surface to remain covered with crop residue.
Conventional Tillage refers to tillage practices where less than 30% of soil surface is covered with previous crop residue.
Such practices may include moldboard plowing, disking, or multiple field cultivation passes prior to or at planting of crop. Strip and Ridge-Till, although usually grouped in conservation tillage because of beneficial effects on soil and water retention, are grouped in conventional tillage here because the tilled zones in which the crop is planted provide an environment more similar to true conventional tillage.

[1] = system: isoline (non-transgenic) corn hybrids RX670 and RX601; test: Field tests of corn yield of isoline hybrids at low pest pressure, with and without imidacloprid seed treatment; conditions: 60 gm per 100 kg of seed; four location/hybrid cases
Procedure: (§1) Corn hybrids with and without transgenic events expressing insecticidal proteins were evaluated for field efficacy. The hybrids that were evaluated were RX670 and RX601, each as an isoline (having no transgenic events) and each having a transgenic event expressing the Cry3Bb protein having activity against Diabrotica spp. (corn rootworm)—designated as MON853, or a transgenic event expressing the Cry3Bb protein having activity against corn rootworm—designated as MON863, or a combination of MON853 and a transgenic event expressing the Cry1A protein having activity against European corn borer—designated as MON810, or a combination of MON863 and MON810. Accordingly, an isoline and four transgenic forms were tested for each hybrid. Each type of seed was tested with and without seed treatment with 60 gm of imidacloprid per 100 kg of seed, applied in a Niklas seed treater. The isoline seeds were also tested with and without the use of conventional soil-applied insecticides, which were applied as described in Example 3.

[2] = system: corn hybrids RX670 and RX601 having transgenic events MON853, MON863, MON810; test: Field trials of corn yield of transgenic seed at low pest pressure, with and without imidacloprid seed treatment; conditions: 60 gm per 100 kg of seed; all trials; relative absence of insect pressure
Procedure: as §1

[3] = system: corn rootworm; secondary insect pests of corn; test: Insect protection of corn by imidacloprid seed treatment at 0.165 mg/kernel (stated as previously shown); conditions: 0.165 mg imidacloprid/kernel
[4] = hybrid B = DKC46-26, 10 locations
[5] = hybrid D = DKC51-88, 10 locations
[6] = hybrid F = LH244XLH295, 10 locations
[7] = hybrid H = HC33XLH277, 14 locations
[8] = hybrid I = DKC57-38, 14 locations
[9] = vs fungicide-treated control, 12 hybrids

## O=[N+]([O-])NC1=NCCN1Cc1ccc(Cl)nc1 [Imidacloprid, imidacloprid]
Commercial corn hybrids; hybrid A = DK440, 10 locations
  Stand count, Imidacloprid treated: 31920 plts/ac
  Corn yield, Imidacloprid treated: 163.5 bu/ac
  Corn yield, Difference: 2.0 bu/ac
  Stand count, Difference: 843.8 plts/ac
Commercial corn hybrids; [4]
  Stand count, Imidacloprid treated: 32061 plts/ac
  Corn yield, Imidacloprid treated: 170.8 bu/ac
  Corn yield, Difference: 4.1 bu/ac
  Stand count, Difference: 439.0 plts/ac
Commercial corn hybrids; hybrid C = DK493, 10 locations
  Stand count, Imidacloprid treated: 31217 plts/ac
  Corn yield, Imidacloprid treated: 159.6 bu/ac
  Corn yield, Difference: 5.8 bu/ac
  Stand count, Difference: 749.5 plts/ac
Commercial corn hybrids; [5]
  Stand count, Imidacloprid treated: 31828 plts/ac
  Corn yield, Imidacloprid treated: 169.4 bu/ac
  Corn yield, Difference: −0.7 bu/ac
  Stand count, Difference: 946.8 plts/ac
Commercial corn hybrids; hybrid E = DK537, 10 locations
  Stand count, Imidacloprid treated: 32011 plts/ac
  Corn yield, Imidacloprid treated: 171.2 bu/ac
  Corn yield, Difference: 1.0 bu/ac
  Stand count, Difference: 620.0 plts/ac
Commercial corn hybrids; [6]
  Stand count, Imidacloprid treated: 30786 plts/ac
  Corn yield, Imidacloprid treated: 173.1 bu/ac
  Corn yield, Difference: 4.7 bu/ac
  Stand count, Difference: 1162.3 plts/ac
Commercial corn hybrids; hybrid G = DK567, 14 locations
  Stand count, Imidacloprid treated: 28766 plts/ac
  Corn yield, Imidacloprid treated: 167.5 bu/ac
  Corn yield, Difference: 3.5 bu/ac
  Stand count, Difference: 1189.2 plts/ac
Commercial corn hybrids; [7]
  Stand count, Imidacloprid treated: 28004 plts/ac
  Corn yield, Imidacloprid treated: 164.6 bu/ac
  Corn yield, Difference: 4.8 bu/ac
  Stand count, Difference: 39.6 plts/ac
Commercial corn hybrids; [8]
  Stand count, Imidacloprid treated: 28460 plts/ac
  Corn yield, Imidacloprid treated: 172.3 bu/ac
  Corn yield, Difference: 9.2 bu/ac
  Stand count, Difference: 1822.2 plts/ac
Commercial corn hybrids; hybrid J = DK585, 14 locations
  Stand count, Imidacloprid treated: 28273 plts/ac
  Corn yield, Imidacloprid treated: 179.5 bu/ac
  Corn yield, Difference: 3.7 bu/ac
  Stand count, Difference: 429.3 plts/ac
Commercial corn hybrids; hybrid K = DK611, 14 locations
  Stand count, Imidacloprid treated: 28984 plts/ac
  Corn yield, Imidacloprid treated: 171.3 bu/ac
  Corn yield, Difference: 0.1 bu/ac
  Stand count, Difference: 1022.8 plts/ac
Commercial corn hybrids; hybrid L = RX708, 14 locations
  Stand count, Imidacloprid treated: 28986 plts/ac
  Corn yield, Imidacloprid treated: 180.7 bu/ac
  Corn yield, Difference: 6.9 bu/ac
  Stand count, Difference: 803.7 plts/ac
Commercial corn hybrids; twelve hybrids, twenty four locations
  increase or decrease in corn yield vs untreated seeds (FIG. 2 by hybrid, FIG. 3 by location): consistent and commercially important increases in corn yield
Commercial corn hybrids; [9]
  hybrid/seed treatment combinations with yield increase more than expected on the basis of stand improvement alone: 9 out of 12
  hybrid/seed treatment combinations with yield increase over two-times that predicted on the basis of stand improvement: 7 out of 12
Commercial corn hybrids; hybrid A = DK440
  Actual Yield Over Expected: Yes
  Actual Yield Over 2× of Expected: No
Commercial corn hybrids; hybrid B = DKC46-26
  Actual Yield Over Expected: Yes
  Actual Yield Over 2× of Expected: Yes
Commercial corn hybrids; hybrid C = DK493
  Actual Yield Over Expected: Yes
  Actual Yield Over 2× of Expected: Yes
Commercial corn hybrids; hybrid D = DKC51-88
  Actual Yield Over Expected: No
  Actual Yield Over 2× of Expected: No
Commercial corn hybrids; hybrid E = DK537
  Actual Yield Over Expected: No
  Actual Yield Over 2× of Expected: No
Commercial corn hybrids; hybrid F = LH244XLH295
  Actual Yield Over Expected: Yes
  Actual Yield Over 2× of Expected: Yes
Commercial corn hybrids; hybrid G = DK567
  Actual Yield Over Expected: Yes
  Actual Yield Over 2× of Expected: No
Commercial corn hybrids; hybrid H = HC33XLH277
  Actual Yield Over Expected: Yes
  Actual Yield Over 2× of Expected: Yes
Commercial corn hybrids; hybrid I = DKC57-38
  Actual Yield Over Expected: Yes
  Actual Yield Over 2× of Expected: Yes
Commercial corn hybrids; hybrid J = DK585
  Actual Yield Over Expected: Yes
  Actual Yield Over 2× of Expected: Yes
Commercial corn hybrids; hybrid K = DK611
  Actual Yield Over Expected: No
  Actual Yield Over 2× of Expected: No
Commercial corn hybrids; hybrid L = RX708
  Actual Yield Over Expected: Yes
  Actual Yield Over 2× of Expected: Yes
Corn hybrids; conservation/minimum tillage
  increase in corn yield: 1.6%
Corn hybrids; convention tillage
  increase in corn yield: 1.7%
Corn hybrids; no-till cultivation
  increase in corn yield: 6.3%
Corn hybrids; planted on soil treated with soil-applied insecticide, all tillage conditions and hybrids
  corn yield vs seeds without imidacloprid treatment: considerably higher yield
[1]
  effect of imidacloprid treatment on yield for isoline corn: increased by imidacloprid treatment in one-half of the cases tested
[2]
  corn yield of transgenic seed treated with imidacloprid vs isolines and untreated transgenic strains: higher than the isolines, and also higher than the untreated transgenic strains
[3]
  protection of corn seedlings against stand reducing and growth limiting secondary insect pests: effective
[3]; locations with economically damaging levels of corn rootworm
  reduction of root injury by corn rootworm: not significantly reduce root injury
